Test results published in the Bradley open melting point set (2014).
“And” between values parts separate entries of the source, which are not always exact repeats. Equal entries are not always repeated.

With `CC12CCC3C(CCC4CC(=O)CCC43C)C1CCC2=O` (stereo unspecified) [androstane-3,17-dione] the melting point was 132 °C. `Nc1ccccc1` [aniline] [listing 1 of 2 here] showed a melting point of -6 °C. In the case of `Nc1ccccc1` [aniline] [listing 2 of 2 here], the melting point is reported as -6 °C (4×) and -6.2 °C (2×). Compound `Nc1ccccc1C(=O)OCC=Cc1ccccc1` [anthranilic acid cinnamyl ester] has a melting point of 65 °C. In the case of `O=C1c2ccccc2Cc2ccccc21` [anthrone], the melting point is reported as 157 °C. In the case of `CCCC1C(=O)N2C(N(C)C)=Nc3ccc(C)cc3N2C1=O` (stereo unspecified) [apazone], the melting point is reported as 228 °C. `C=CCC1(C(C)C)C(=O)NC(=O)NC1=O` [aprobarbital] showed a melting point of 143 °C. With `CCNc1nc(Cl)nc(NC(C)C)n1` [atrazine] the melting point was 175 °C and 177 °C. In the case of `N(=N/c1ccccc1)c2ccccc2` [azobenzene], the melting point is reported as 69 °C. Work on `O=C(O)C=Cc1ccco1` [b-2-Furylacrylic Acid] yielded a melting point of 133 °C. For `ClCCOc1ccccc1` [b-chlorophenetole], the melting point was 28 °C. Work on `CCC1(CC)C(=O)NC(=O)NC1=O` [barbital] yielded a melting point of 190 °C. `O=C(CCCN1CCC(n2c(=O)[nH]c3ccccc32)CC1)c1ccc(F)cc1` [benperidol] [listing 1 of 2 here] showed a melting point of 171 °C. For `O=C(CCCN1CCC(n2c(=O)[nH]c3ccccc32)CC1)c1ccc(F)cc1` [benperidol] [listing 2 of 2 here], the melting point was 170 °C. For `O=Cc1ccccc1` [benzaldehyde], the melting point was -56.5 °C and -55.6 °C. In the case of `O=C(NCCCCc1ccccc1)c1cc([N+](=O)[O-])cc([N+](=O)[O-])c1` [benzamide, 3,5-dinitro-N-(4-phenylbutyl)-], the melting point is reported as 166 °C. For `CCCCc1ccc(NC(=O)c2ccc(OC)cc2)cc1` [benzamide, N-(4-butylphenyl)-4-methoxy-], the melting point was 147 °C. In the case of `O=S(=O)(Cl)c1ccccc1` [benzenesulfonyl chloride], the melting point is reported as 15 °C. `NNS(=O)(=O)c1ccccc1` [benzenesulfonyl hydrazide] gave a melting point of 103 °C. `O=C1CCC(c2ccccc2)(C2CCN(Cc3ccccc3)CC2)C(=O)N1` (stereo unspecified) [benzetimide] showed a melting point of 156 °C. With `NC(c1ccccc1)c1ccccc1` [benzhydrylamine] the melting point was 12 °C. `O=C(C(=O)c1ccccc1)c1ccccc1` [benzil] showed a melting point of 95 °C. In the case of `c1ccc2[nH]cnc2c1` [benzimidazole], the melting point is reported as 170 °C and 172 °C. With `c1ccc2c(c1)cc1ccc3cccc4ccc2c1c34` [benzo(a)pyrene] the melting point was 179 °C. In the case of `c1ccc2c(c1)cc1ccc3cccc4ccc2c1c34` [benzo[a]pyrene], the melting point is reported as 176 °C and 179 °C. `O=C(O)c1cc2ccccc2o1` [benzo[b]furan-2-carboxylic acid] gave a melting point of 194 °C. For `OB(O)c1cc2ccccc2s1` [benzo[b]thiophene-2-boronic acid], the melting point was 255 °C. `[O-][n+]1onc2ccccc21` [benzofuroxan] showed a melting point of 69 °C. `O=C(O)c1ccccc1` [benzoic acid] gave a melting point of 122 °C. In the case of `O=C(O)c1ccccc1` [benzoic_acid], the melting point is reported as 123 °C. For `OC(c1ccccc1)(c1ccccc1)C(O)(c1ccccc1)c1ccccc1` [benzopinacol], the melting point was 177 °C. Compound `O=C(Cl)c1nc2ccccc2s1` [benzothiazole-2-carbonyl chloride] has a melting point of 114 °C. Work on `c1ccc2scnc2c1` [benzothiazole] yielded a melting point of 2 °C. `ClC(Cl)(Cl)c1ccccc1` [benzotrichloride] showed a melting point of -4 °C. With `O=C(Cl)OCc1ccccc1` [benzyl chloroformate] the melting point was -20 °C. With `O=S(=O)(Cc1ccccc1)c1ccccc1` [benzyl phenyl sulfone] the melting point was 149 °C. Work on `OCc1ccccc1` [benzyl_alcohol] yielded a melting point of -15 °C. For `c1ccc(COCc2ccccc2)cc1` [benzyl_ether], the melting point was 3 °C. `NC(=O)NCc1ccccc1` [benzylurea] gave a melting point of 149 °C. `OC[C@H]1O[C@@H](O)[C@H](O)[C@H](O)[C@@H]1O` [beta-D-allose] showed a melting point of 145 °C. Compound `CC1=C(/C=C/C(C)=C/C=C/C(C)=C/C=C/C=C(C)/C=C/C=C(C)/C=C/C2=C(C)CCCC2(C)C)C(C)(C)CCC1` [beta-carotene] has a melting point of 180 °C. For `C[C@]12CC[C@@H]3c4ccc(O)cc4CC[C@H]3[C@@H]1CC[C@@H]2O` [beta-estradiol], the melting point was 177 °C. For `C[C@H]1C[C@H]2[C@@H]3CCC4=CC(=O)C=C[C@]4(C)[C@@]3(F)[C@@H](O)C[C@]2(C)[C@@]1(O)C(=O)CO` [betamethasone], the melting point was 232 °C. Work on `c1ccc(CCc2ccccc2)cc1` [bibenzyl] [listing 1 of 2 here] yielded a melting point of 55 °C. In the case of `c1ccc(CCc2ccccc2)cc1` [bibenzyl] [listing 2 of 2 here], the melting point is reported as 52 °C. `C1CCC(C2CCCCC2)CC1` [bicyclohexyl] gave a melting point of 4 °C. Compound `Nc1ccc(-c2ccc(N)cc2N)c(N)c1` [biphenyl-2,2',4,4'-tetramine] has a melting point of 158 °C. Compound `OB(O)c1cccc(-c2ccccc2)c1` [biphenyl-3-boronic acid] has a melting point of 209 °C. Work on `COc1cc(C(=O)c2ccc(-c3ccccc3)cc2)c([N+](=O)[O-])cc1OC` [biphenyl-4-yl(4,5-dimethoxy-2-nitrophenyl)methanone] yielded a melting point of 145 °C. `N#CC(c1ccccc1[N+](=O)[O-])c1ccccc1[N+](=O)[O-]` [bis(2-nitrophenyl)acetonitrile] gave a melting point of 110 °C. `Clc1ccc(SSc2ccc(Cl)cc2)cc1` [bis(4-chlorophenyl) disulfide] gave a melting point of 73 °C.
